Measured values published in article PMC8906844 (Organic & biomolecular chemistry, 2021).

Columns and labels:
pKa measurement = assay type: physicochemical; settings: weak diprotic acid
LAR = LAR (Homo sapiens, UniProt P10586); settings: 22 °C and pH 6.5; originally obtained; cited from earlier work
Sequence of LAR (P10586 30-1907): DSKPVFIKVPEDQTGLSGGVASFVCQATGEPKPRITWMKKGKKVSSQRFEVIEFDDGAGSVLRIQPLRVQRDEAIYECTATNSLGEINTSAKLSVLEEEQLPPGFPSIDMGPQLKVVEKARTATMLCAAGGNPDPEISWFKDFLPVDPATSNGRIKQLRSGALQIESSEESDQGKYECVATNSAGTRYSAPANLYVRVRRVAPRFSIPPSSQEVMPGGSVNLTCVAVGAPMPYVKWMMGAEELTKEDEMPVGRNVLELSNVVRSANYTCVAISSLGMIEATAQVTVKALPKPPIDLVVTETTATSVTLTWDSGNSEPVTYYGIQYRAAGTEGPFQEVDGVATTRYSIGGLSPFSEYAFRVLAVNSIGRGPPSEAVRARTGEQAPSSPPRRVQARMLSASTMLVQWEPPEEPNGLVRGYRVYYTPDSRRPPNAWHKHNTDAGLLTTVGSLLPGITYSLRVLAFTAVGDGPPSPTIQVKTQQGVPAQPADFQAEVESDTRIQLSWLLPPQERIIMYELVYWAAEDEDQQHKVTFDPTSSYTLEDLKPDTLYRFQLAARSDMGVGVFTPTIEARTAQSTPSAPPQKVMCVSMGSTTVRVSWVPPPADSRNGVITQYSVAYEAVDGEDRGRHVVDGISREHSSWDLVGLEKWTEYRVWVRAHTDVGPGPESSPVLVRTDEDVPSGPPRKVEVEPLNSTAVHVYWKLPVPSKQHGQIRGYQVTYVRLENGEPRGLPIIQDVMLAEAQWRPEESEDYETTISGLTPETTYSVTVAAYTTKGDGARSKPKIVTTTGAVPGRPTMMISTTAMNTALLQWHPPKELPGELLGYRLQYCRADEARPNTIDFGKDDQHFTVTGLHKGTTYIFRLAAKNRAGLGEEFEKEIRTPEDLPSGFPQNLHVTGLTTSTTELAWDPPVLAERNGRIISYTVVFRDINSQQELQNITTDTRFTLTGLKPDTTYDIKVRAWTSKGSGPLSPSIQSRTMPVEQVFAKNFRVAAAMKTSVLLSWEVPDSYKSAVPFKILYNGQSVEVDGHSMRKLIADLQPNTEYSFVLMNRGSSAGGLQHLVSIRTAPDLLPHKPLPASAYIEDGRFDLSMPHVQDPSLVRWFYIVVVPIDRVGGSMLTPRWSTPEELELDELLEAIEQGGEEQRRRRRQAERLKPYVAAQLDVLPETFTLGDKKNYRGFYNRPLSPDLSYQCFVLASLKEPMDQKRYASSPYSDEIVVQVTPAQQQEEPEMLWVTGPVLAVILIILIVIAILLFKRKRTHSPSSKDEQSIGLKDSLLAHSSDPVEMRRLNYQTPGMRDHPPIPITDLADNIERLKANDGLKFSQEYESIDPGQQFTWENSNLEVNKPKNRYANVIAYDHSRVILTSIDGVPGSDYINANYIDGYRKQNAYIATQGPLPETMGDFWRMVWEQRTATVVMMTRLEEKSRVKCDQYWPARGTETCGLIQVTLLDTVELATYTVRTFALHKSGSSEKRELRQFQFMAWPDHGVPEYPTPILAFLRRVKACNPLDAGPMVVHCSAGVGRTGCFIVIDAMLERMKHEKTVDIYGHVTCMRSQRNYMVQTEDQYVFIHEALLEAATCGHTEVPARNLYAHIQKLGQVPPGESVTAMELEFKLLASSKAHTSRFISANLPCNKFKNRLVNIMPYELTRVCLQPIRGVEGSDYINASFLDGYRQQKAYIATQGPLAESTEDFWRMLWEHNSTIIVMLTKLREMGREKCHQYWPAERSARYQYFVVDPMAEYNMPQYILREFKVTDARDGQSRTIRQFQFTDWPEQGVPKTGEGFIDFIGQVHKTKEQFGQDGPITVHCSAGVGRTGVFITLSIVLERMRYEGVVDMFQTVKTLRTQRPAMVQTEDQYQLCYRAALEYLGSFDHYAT

pKa (pKa measurement; pKa (first), first value): 5.42 | pKa (pKa measurement; pKa (second), second value): 6.6
Compound: CC1(C)Cc2c(O)c(C=O)c3c(c2C1)C(=O)OC(O)C3 (stereo not drawn) [illudalic acid]
t^∞1/2 (LAR): 0.5 min
